Measurements taken from patent publication US6706686B2, “Inhibition of histone deacetylase as a treatment for cardiac hypertrophy” (The Regents of the University of Colorado, priority 2001, dated 2004).
“Also recorded” adds a separate entry of the source.

What was measured:
[1] = system: CMV-Lac Z reporter in neonatal rat cardiomyocytes; test: CMV-Lac Z reporter (specificity control); assay type: cell-based; details: inhibitor alone or together with phenylephrine
Description: (§1) FIGS. 3A-D. HDAC inhibitors block the activation of ANF reporter by phenylphrine without cytotoxicity. Neonatal rat cardiomyocytes were co-transfected with a total of 1 μg of the mouse 3 kb ANF promoter fragment and CMV-Lac Z plasmids. (FIG. 3A) The ANF promoter is minimally active in unstimulated cardiomyocytes. […] (FIG. 3B) Lac Z expression by the constitutive promoter CMV. Treatment with HDAC inhibitors augmented CMV activity with and without phenylephrine co-treatment. (FIGS. 3C and 3D) The graphs show the measurements of adenylate kinase activity remains constant in the medium after […] of culturing cardiomyocytes in the absence or presence of hypertrophic stimulants FBS, PE or ET-1.
(§2) Transcription assay. Twenty-four hours after plating, cells were transfected with total of 1 μg/ml for 5 hrs using Lipofectamine Plus reagent (Invitrogen, Carlsbad, Calif.). Transfected cells were incubated 24 hrs then treated for an additional 24 hrs. Cells were lysed and their lysates assayed with the Luciferase Assay System (Promega, Madison, Wis.) for luminescence using Lucysoft 2 luminometer (Rosys Anthos, New Castle, Del.).

[2] = system: ANF promoter in neonatal rat cardiomyocytes; test: ANF promoter transcription (luciferase) assay; assay type: cell-based; details: for activation of ANF promoter by phenylephrine: phenylephrine 100 μM, TSA 85 nM, NaBut 5 mM, HC-toxin 5 ng/ml; for ANF promoter activity, inhibitor alone: unstimulated cardiomyocytes
Description: as §1
Cardiomyocyte isolation. Hearts were harvested from 15-day timed-pregnant female Sprague-Dawley rats (Harlan, Houston, Tex.). After mincing in phosphate-buffered saline, cardiomyocytes were isolated from successive digestion fractions of 0.1% (w/v) Pancreatin (Sigma, St. Louis, Mo.) solution. Fractions were collected; resuspended in plating medium, pooled; and then plated for 2 hours to separate fibroblasts from cardiomyocyte population. Suspended cells were recollected and plated in 6-well dishes at 1×10^6 cells/well for transfection and immunofluorescence experiments, and 2×10^6 cells in 10 cm dishes for RNA analysis.
as §2

[3] = system: ANF, αSK-actin, αMyHC, βMyHC RNA in cardiomyocytes; test: RNA dot blot of fetal gene program; assay type: cell-based, rat; details: phenylephrine 100 μM, TSA 85 nM, sodium butyrate 5 mM, HC-toxin 5 ng/ml
Description: FIGS. 5A-B. Treatment of cardiomyocytes with HDAC inhibitors blocks the fetal gene program associated with cardiomyocyte hypertrophy. […] The graphs represent three or more independent experiments.
Dot Blot analysis. Total RNA was isolated from cardiomyocytes that were either untreated, treated with phenylephrine, treated with TSA, or co-treated with phenylephrine and TSA. One microgram of RNA was blotted onto Nitrocellulose (Bio-Rad, Hercules, Calif.) and hybridized at 50° C. for 14 hrs with end-labeled oligos. (ANF, 5′-[…]-3, SEQ ID NO 1; αSK actin5′-[…]-3′, SEQ ID NO2; αMyHC,5′[…]-3′, SEQ ID NO 3; βMyHC5′-[…]-3′, SEQ ID NO 4; GAPDH5′-[…]-3′, SEQ ID NO 5). The blots were washed twice in 2×SSC/0.5% SDS solution and exposed to film (Kodak, Rochester, N.Y.) or phosphoimager (Amersham Bioscience, Sunnyvale, Calif.). The intensity of the hybridization of the probes was measured using ImageQuant® (Amersham Bioscience, Sunnyvale, Calif.).

transformed cells = details: Marks et al. (2000); cited from earlier work
HDAC = details: Marks et al. (2000); cited from earlier work
cultured cardiomyocytes = test: Adenylate kinase release cytotoxicity assay; assay type: cell-based; details: increasing doses: TSA up to 100 nM, sodium butyrate up to 25 nM
Description: as §1
Inventors then examined whether increasing doses of TSA and sodium butyrate were cytotoxic to cultured cardiomyocytes. To determine cell mortality, the release of adenylate kinase from cardiomyocytes into the culture medium was assayed. This assay is a known measurement for the integrity of the cell membrane: membranes become permeable in dying cells causing the cells release adenylate kinase.

cardiomyocytes = test: Protein synthesis (tritiated leucine, S6 ribosomal protein); assay type: cell-based, rat
Description: FIG. 6. The effects of TSA treatment on the reorganization of the sarcomeres and protein synthesis. […] The graphs on the right show the content of S6 ribosome protein in cardiomyocytes after 24 hours co-treatment with PE and increasing concentrations of TSA or with serum and increasing concentrations of TSA.
Protein synthesis. Cardiomyocytes were incubated with (1.0 μCi/ml; 172 Ci/mmol sp. activity) tritiated-leucine (ICN Biochemicals, Inc., Irvine, Calif.) in treated RPMI media (Invitrogen, Carlsbad, Calif.). After 6 hrs incubation, the cells were washed twice with 1× PBS, then incubated in 10% TCA on ice for 30 min. Afterwards, the cells were washed twice with 5% TCA, once with water, and then lysed in […]. Lysates were measured in one-sixth volume of scintillation fluid by a scintillation counter (Beckman, Fullerton, Calif.).
S6 Ribosomal protocol. After blocking, cells were incubated in 1% BSA/1× PBS containing 50 μg/ml anti-S6 protein (Cell Signaling, […]) for 1 hr. After washing, the cells were incubated with IgG-HRP (Jackson Labs, […]) at a 1:400 dilution. The cells were then washed twice in 1% BSA/1× PBS, in 1× PBS, then blotted dry. Luminol (Pierce, Rockford, Ill.) was added and the chemiluminescence was detected in a Fusion reader (Perkin-Elmer/Packard).

[4] = system: ANF in neonatal cardiomyocytes; test: ANF chemiluminescence detection, dose response; assay type: cell-based, rat
Description: FIGS. 4A-C. […] As in the transfection experiments, phenylephrine (100 µM) induces ANF expression over three-fold. […] (FIGS. 4B and 4C) The graphs show a reduction of the chemiluminent detection of ANF in the culture medium with increasing concentrations of the HDAC inhibitors TSA (FIG. 4B) and sodium butyrate (FIG. 4C) when co-cultured with the hypertrophic stimulants FBS, PE or ET-1.
Chemilumenescence. Neonatal cardiomyocytes were seeded onto 96-well plates and treated for 72 hrs. The cells were washed twice in 1×PBS, fixed in 4% paraformaldehyde/1×PBS, and permeabilized with 0.1% Triton-X100. After blocking, the cells were incubated 1 hr. with 10 μg/ml monoclonal anti-ANF antibody (Biodesign). The wells were washed twice with 1% BSA/1× PBS and then incubated for 1 hr. with goat anti-mouse IgG-Fc-HRP (Jackson Labs, […]) at 1:1000 in 1× PBS/1% BSA. Cells were washed twice with 1% BSA/1×PBS, twice with 1× PBS, then blotted dry. Luminol (Pierce, Rockford, Ill.) was added and the chemiluminescence was detected in a Fusion Plate Reader (Perkin Elmer/Packard).

SMILES | transcriptional activity of CMV-Lac Z reporter [1] | activation of ANF promoter by phenylephrine [2] | ANF promoter activity, inhibitor alone [2] | phenylephrine-induced endogenous ANF RNA expression [3] | effect on transformed cells (transformed cells) | other results
C[C@@H]1NC(=O)[C@H]2CCCN2C(=O)[C@H](CCCCCC(=O)[C@@H]2CO2)NC(=O)[C@@H](C)NC1=O [HC-toxin] | increased the transcriptional activity of the CMV-Lac Z reporter | did block the promoter's activation by phenylephrine treatment completely; also recorded: prevented the activation of the ANF promoter | did not activate the ANF promoter | prevented the phenylephrine-induced ANF response; also recorded: blocks the accumulation of ANF message |  | 
O=C(CCCCCCC(=O)Nc1ccccc1)NO [SAHA, suberoylanilide hydroxamic acid] |  |  |  |  | induce growth arrest, differentiation, or apoptotic cell death of transformed cells | 
O=C(CCCCCCC(=O)Nc1cccnc1)NO [pyroxamide, suberoyl-3-aminopyridineamide hydroxyamic acid] |  |  |  |  | induce growth arrest, differentiation, or apoptotic cell death of transformed cells | inhibition of HDAC (HDAC): potent inhibitors of HDAC in vitro and in vivo
CCCC(=O)[O-].[Na+] [sodium butyrate] | increased the transcriptional activity of the CMV-Lac Z reporter | did block the promoter's activation by phenylephrine treatment completely | did not activate the ANF promoter | blocks the accumulation of ANF message |  | activation of ANF promoter by phenylephrine ([2]; listed as NaBut): prevented the activation of the ANF promoter; phenylephrine-induced endogenous ANF RNA expression ([3]; listed as NaBut): prevented the phenylephrine-induced ANF response; adenylate kinase in the culture medium (cell death) (cultured cardiomyocytes): did little to increase adenylate kinase; phenylephrine-stimulated protein synthesis, 6 hours (cardiomyocytes; 6 hours co-culture with phenylephrine): had little effect on the stimulation of protein synthesis; protein synthesis induced by PE or serum, 24 hrs (cardiomyocytes; 24 hrs co-treatment): antagonized the protein synthesis normally induced by PE or serum in a dose-dependent manner; minimal concentration that inhibited the hypertrophic response (ANF) of each growth stimulant ([4]; FBS, PE, ET-1): 5 mM; induction of ANF expression by FBS, PE and ET-1 ([4]; increasing concentrations): countered the induction of ANF expression; ANF expression at very low doses ([4]; very low doses (0.2 nM printed for sodium butyrate)): near two-fold increase
